Drawing on the supplement of paper PMC10307832, this text covers relative viability for 7 cell lines.

Assay in all cases: relative viability (nuclei count vs DMSO), 5 days (fraction); higher = more cells survive
Compound in the experiment “AGI-6780 + Foretinib”: O=C(Nc1cccc(C(F)(F)F)c1)Nc1cc(S(=O)(=O)NC2CC2)ccc1-c1ccsc1 [AGI-6780] + COc1cc2c(Oc3ccc(NC(=O)C4(C(=O)Nc5ccc(F)cc5)CC4)cc3F)ccnc2cc1OCCCN1CCOCC1 [Foretinib] (partner 0.25 µM)
In a few lines: (§1)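 Nuclei were stained with Hoechst during a one-step fixation (final 0.05% Triton X-100, 1% formaldehyde, 1 ug/ml Hoechst) carried out 5 days after dosing, then counted on 4× images. The cells, lung cancer lines in 1536-well plates, had been dosed by pin tool the day after seeding with one drug alone or a fixed anchor-drug dose plus five library-drug doses (not always all listed) in √10 steps. Relative viability is the nuclei count in treated wells divided by that in vehicle wells, and each value is the median of duplicate plates.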

Compound in the experiment “AGI-6780 + Alpelisib”: O=C(Nc1cccc(C(F)(F)F)c1)Nc1cc(S(=O)(=O)NC2CC2)ccc1-c1ccsc1 [AGI-6780] + Cc1nc(NC(=O)N2CCC[C@H]2C(N)=O)sc1-c1ccnc(C(C)(C)C(F)(F)F)c1 [Alpelisib] (partner 2 µM)
The method, boiled down: as §1

Compound in the experiment “AGI-6780 + Pemetrexed”: O=C(Nc1cccc(C(F)(F)F)c1)Nc1cc(S(=O)(=O)NC2CC2)ccc1-c1ccsc1 [AGI-6780] + Nc1nc2[nH]cc(CCc3ccc(C(=O)N[C@@H](CCC(=O)O)C(=O)O)cc3)c2c(=O)[nH]1 [Pemetrexed] (partner 0.2 µM)
In a few lines: as §1

Compound in the experiment “AGI-6780 + Olaparib”: O=C(Nc1cccc(C(F)(F)F)c1)Nc1cc(S(=O)(=O)NC2CC2)ccc1-c1ccsc1 [AGI-6780] + O=C(c1cc(Cc2n[nH]c(=O)c3ccccc23)ccc1F)N1CCN(C(=O)C2CC2)CC1 [Olaparib] (partner 8 µM)
In a few lines:
as §1

On to NCI-H2085, for which the relative viability was 0.995 with AGI-6780 + Foretinib (first compound 0.08 µM); 0.882 with AGI-6780 + Foretinib (first compound 0.253 µM); 1.05 in the experiment with AGI-6780 + Foretinib (first compound 0.8 µM); 1.02 with AGI-6780 + Foretinib (first compound 2.53 µM); 0.903 in the experiment with AGI-6780 + Foretinib (first compound 8 µM); 0.965 with AGI-6780 + Alpelisib (first compound 0.08 µM). The relative viability in the experiment with AGI-6780 + Alpelisib (first compound 0.253 µM) was 0.978; in the experiment with AGI-6780 + Alpelisib (first compound 0.8 µM), 0.976; with AGI-6780 + Alpelisib (first compound 2.53 µM) it was 0.949; in the experiment with AGI-6780 + Alpelisib (first compound 8 µM) it was 0.885; in the experiment with AGI-6780 + Pemetrexed (first compound 0.08 µM), 0.935; in the experiment with AGI-6780 + Pemetrexed (first compound 0.253 µM), 0.963. Besides, the relative viability in the experiment with AGI-6780 + Pemetrexed (first compound 0.8 µM) came out at 0.911; with AGI-6780 + Pemetrexed (first compound 2.53 µM) it was 1.14; with AGI-6780 + Pemetrexed (first compound 8 µM) it was 0.906; with AGI-6780 + Olaparib (first compound 0.08 µM), 0.823; with AGI-6780 + Olaparib (first compound 0.253 µM) it was 0.739; in the experiment with AGI-6780 + Olaparib (first compound 0.8 µM), 0.738. For the same cell line, the relative viability with AGI-6780 + Olaparib (first compound 2.53 µM) turned out to be 0.849; in the experiment with AGI-6780 + Olaparib (first compound 8 µM), 0.761.
As for COR-L23, the relative viability in the experiment with AGI-6780 + Foretinib (first compound 0.08 µM) worked out at 1.03; in the experiment with AGI-6780 + Foretinib (first compound 0.253 µM) it was 0.948; in the experiment with AGI-6780 + Foretinib (first compound 0.8 µM) it was 0.883; with AGI-6780 + Foretinib (first compound 2.53 µM), 1.06; in the experiment with AGI-6780 + Foretinib (first compound 8 µM), 0.837; with AGI-6780 + Alpelisib (first compound 0.08 µM), 0.757. For the same cell line, the relative viability with AGI-6780 + Alpelisib (first compound 0.253 µM) was found to be 0.688; in the experiment with AGI-6780 + Alpelisib (first compound 0.8 µM), 0.67; with AGI-6780 + Alpelisib (first compound 2.53 µM) it was 0.747; with AGI-6780 + Alpelisib (first compound 8 µM), 0.699; with AGI-6780 + Pemetrexed (first compound 0.08 µM), 0.213; with AGI-6780 + Pemetrexed (first compound 0.253 µM), 0.215. The relative viability is 0.206 with AGI-6780 + Pemetrexed (first compound 0.8 µM); 0.207 with AGI-6780 + Pemetrexed (first compound 2.53 µM); 0.188 in the experiment with AGI-6780 + Pemetrexed (first compound 8 µM); 0.349 with AGI-6780 + Olaparib (first compound 0.08 µM); 0.385 with AGI-6780 + Olaparib (first compound 0.253 µM); 0.274 in the experiment with AGI-6780 + Olaparib (first compound 0.8 µM). For the same cell line, the relative viability was 0.32 in the experiment with AGI-6780 + Olaparib (first compound 2.53 µM) and 0.387 with AGI-6780 + Olaparib (first compound 8 µM).
Take NCI-H1755: the relative viability stood at 0.986 in the experiment with AGI-6780 + Foretinib (first compound 0.08 µM); 0.975 in the experiment with AGI-6780 + Foretinib (first compound 0.253 µM); 0.85 with AGI-6780 + Foretinib (first compound 0.8 µM); 0.874 in the experiment with AGI-6780 + Foretinib (first compound 2.53 µM); 0.905 with AGI-6780 + Foretinib (first compound 8 µM); 0.991 with AGI-6780 + Alpelisib (first compound 0.08 µM). In addition, the relative viability with AGI-6780 + Alpelisib (first compound 0.253 µM) came out at 0.936; in the experiment with AGI-6780 + Alpelisib (first compound 0.8 µM), 0.948; with AGI-6780 + Alpelisib (first compound 2.53 µM), 0.83; in the experiment with AGI-6780 + Alpelisib (first compound 8 µM), 0.898; with AGI-6780 + Pemetrexed (first compound 0.08 µM) it was 0.496; in the experiment with AGI-6780 + Pemetrexed (first compound 0.253 µM), 0.495. In addition, the relative viability with AGI-6780 + Pemetrexed (first compound 0.8 µM) was 0.475; with AGI-6780 + Pemetrexed (first compound 2.53 µM), 0.435; in the experiment with AGI-6780 + Pemetrexed (first compound 8 µM), 0.402; with AGI-6780 + Olaparib (first compound 0.08 µM), 0.912; with AGI-6780 + Olaparib (first compound 0.253 µM), 0.868; in the experiment with AGI-6780 + Olaparib (first compound 0.8 µM) it was 0.852. Also, the values for the relative viability with AGI-6780 + Olaparib (first compound 2.53 µM) and with AGI-6780 + Olaparib (first compound 8 µM) were 0.766 and 0.83, respectively.
Regarding NCI-H322M, the relative viability was determined as 1.06 with AGI-6780 + Foretinib (first compound 0.08 µM); 1.01 with AGI-6780 + Foretinib (first compound 0.253 µM); 1.1 with AGI-6780 + Foretinib (first compound 0.8 µM); 1.07 with AGI-6780 + Foretinib (first compound 2.53 µM); 0.982 in the experiment with AGI-6780 + Foretinib (first compound 8 µM); 0.902 with AGI-6780 + Alpelisib (first compound 0.08 µM). Also, the relative viability with AGI-6780 + Alpelisib (first compound 0.253 µM) stood at 0.917; with AGI-6780 + Alpelisib (first compound 0.8 µM), 0.88; with AGI-6780 + Alpelisib (first compound 2.53 µM), 0.906; in the experiment with AGI-6780 + Alpelisib (first compound 8 µM), 0.827; with AGI-6780 + Pemetrexed (first compound 0.253 µM) it was 0.669; with AGI-6780 + Pemetrexed (first compound 0.8 µM), 0.622. In addition, the relative viability with AGI-6780 + Pemetrexed (first compound 2.53 µM) was 0.636; in the experiment with AGI-6780 + Pemetrexed (first compound 8 µM) it was 0.585; in the experiment with AGI-6780 + Olaparib (first compound 0.253 µM), 0.773; in the experiment with AGI-6780 + Olaparib (first compound 0.8 µM), 0.744; in the experiment with AGI-6780 + Olaparib (first compound 2.53 µM), 0.747; in the experiment with AGI-6780 + Olaparib (first compound 8 µM) it was 0.874.
As for COR-L 105, the relative viability in the experiment with AGI-6780 + Foretinib (first compound 0.08 µM) was 1.09; in the experiment with AGI-6780 + Foretinib (first compound 0.253 µM) it was 0.922; with AGI-6780 + Foretinib (first compound 0.8 µM), 0.962; with AGI-6780 + Foretinib (first compound 2.53 µM) it was 1.25; in the experiment with AGI-6780 + Foretinib (first compound 8 µM), 0.981; with AGI-6780 + Alpelisib (first compound 0.08 µM), 1.19. In addition, the relative viability stood at 1.02 in the experiment with AGI-6780 + Alpelisib (first compound 0.253 µM); 0.986 with AGI-6780 + Alpelisib (first compound 0.8 µM); 0.863 with AGI-6780 + Alpelisib (first compound 2.53 µM); 1.04 in the experiment with AGI-6780 + Alpelisib (first compound 8 µM); 1.26 with AGI-6780 + Pemetrexed (first compound 0.08 µM); 0.965 with AGI-6780 + Pemetrexed (first compound 0.253 µM). The relative viability with AGI-6780 + Pemetrexed (first compound 0.8 µM) was found to be 1.17; with AGI-6780 + Pemetrexed (first compound 2.53 µM) it was 0.923; with AGI-6780 + Pemetrexed (first compound 8 µM), 1.08; with AGI-6780 + Olaparib (first compound 0.08 µM) it was 0.632; with AGI-6780 + Olaparib (first compound 0.253 µM), 0.466; with AGI-6780 + Olaparib (first compound 0.8 µM), 0.707. The relative viability with AGI-6780 + Olaparib (first compound 2.53 µM) was 0.66; with AGI-6780 + Olaparib (first compound 8 µM), 0.541.
HCC-827: the relative viability in the experiment with AGI-6780 + Foretinib (first compound 0.08 µM) is 1.09; with AGI-6780 + Foretinib (first compound 0.253 µM), 1.09; with AGI-6780 + Foretinib (first compound 0.8 µM), 1.1; in the experiment with AGI-6780 + Foretinib (first compound 2.53 µM) it was 0.938; with AGI-6780 + Foretinib (first compound 8 µM), 1.03; with AGI-6780 + Alpelisib (first compound 0.08 µM) it was 0.937. Moreover, the relative viability in the experiment with AGI-6780 + Alpelisib (first compound 0.253 µM) is 0.971; in the experiment with AGI-6780 + Alpelisib (first compound 0.8 µM) it was 0.986; with AGI-6780 + Alpelisib (first compound 2.53 µM), 0.952; with AGI-6780 + Alpelisib (first compound 8 µM) it was 0.955; with AGI-6780 + Pemetrexed (first compound 0.08 µM), 0.237; in the experiment with AGI-6780 + Pemetrexed (first compound 0.253 µM), 0.257. In addition, the relative viability in the experiment with AGI-6780 + Pemetrexed (first compound 0.8 µM) amounted to 0.264; in the experiment with AGI-6780 + Pemetrexed (first compound 2.53 µM), 0.256; in the experiment with AGI-6780 + Pemetrexed (first compound 8 µM) it was 0.27; with AGI-6780 + Olaparib (first compound 0.08 µM), 0.73; with AGI-6780 + Olaparib (first compound 0.253 µM), 0.659; with AGI-6780 + Olaparib (first compound 0.8 µM), 0.661. The results for the relative viability with AGI-6780 + Olaparib (first compound 2.53 µM) and in the experiment with AGI-6780 + Olaparib (first compound 8 µM) were 0.53 and 0.651, respectively.
NCI-H2087: the relative viability with AGI-6780 + Foretinib (first compound 0.08 µM) came to 1.04; with AGI-6780 + Foretinib (first compound 0.253 µM) it was 1.24; with AGI-6780 + Foretinib (first compound 0.8 µM), 1.17; with AGI-6780 + Foretinib (first compound 2.53 µM) it was 1.17; with AGI-6780 + Foretinib (first compound 8 µM) it was 1.08; with AGI-6780 + Alpelisib (first compound 0.08 µM), 1.17. Also, the relative viability with AGI-6780 + Alpelisib (first compound 0.253 µM) was 1.1; in the experiment with AGI-6780 + Alpelisib (first compound 0.8 µM), 1.15; in the experiment with AGI-6780 + Alpelisib (first compound 2.53 µM), 0.983; with AGI-6780 + Alpelisib (first compound 8 µM), 1.14; in the experiment with AGI-6780 + Pemetrexed (first compound 0.08 µM), 0.702; in the experiment with AGI-6780 + Pemetrexed (first compound 0.253 µM), 0.637. Also, the relative viability in the experiment with AGI-6780 + Pemetrexed (first compound 0.8 µM) turned out to be 0.696; in the experiment with AGI-6780 + Pemetrexed (first compound 2.53 µM), 0.636; with AGI-6780 + Pemetrexed (first compound 8 µM) it was 0.754; in the experiment with AGI-6780 + Olaparib (first compound 0.08 µM) it was 0.674; with AGI-6780 + Olaparib (first compound 0.253 µM) it was 0.563; with AGI-6780 + Olaparib (first compound 0.8 µM), 0.524. The relative viability with AGI-6780 + Olaparib (first compound 2.53 µM) was 0.53; with AGI-6780 + Olaparib (first compound 8 µM), 0.637.
